Data published in BindingDB's records for doi:10.7270/Q2W957MN (The Scripps Research Institute Molecular Screening Center, 2010).

Target: T1, Trans-activator protein BZLF1 (Epstein-Barr virus (strain B95-8), UniProt P03206)
T1 sequence (P03206 whole entry): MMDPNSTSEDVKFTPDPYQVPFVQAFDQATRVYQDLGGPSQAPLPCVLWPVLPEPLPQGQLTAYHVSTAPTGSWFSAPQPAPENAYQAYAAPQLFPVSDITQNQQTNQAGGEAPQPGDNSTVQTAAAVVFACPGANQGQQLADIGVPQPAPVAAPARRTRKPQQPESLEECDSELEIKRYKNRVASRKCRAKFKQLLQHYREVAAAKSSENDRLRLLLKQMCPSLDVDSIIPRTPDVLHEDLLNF
Assay: inhibition of BZLF1 ZTA DNA binding – biochemical, fluorescence polarization, Epstein-Barr virus, 1536-well, counter-screen for EBNA-1 inhibitor project, dose response (AID 2377)

Structure (SMILES) | IC50
COc1cccc(-n2cc(O)c(-c3nc4ccccc4c(=O)[nH]3)c2N)c1 [MLS000075886] | > 111 µM
CN1C(=O)/C(=N\NC(=O)c2cc(-c3cccs3)nc3ccccc23)c2ccccc21 [SMR000242891] | > 111 µM
C=c1cc2[nH]c(=O)c(=Cc3cn(C)c4ccccc34)c(=N)n2o1 [(6Z)-7-imino-2-methyl-6-[(1-methylindol-3-yl)methylidene]-[1,2]oxazolo[2,3-a]pyrimidin-5-one] | > 111 µM
O=[N+]([O-])c1cccc(CN=Nc2nc(NCc3ccccc3)nc(N3CCOCC3)n2)c1 [SMR000174986] | > 111 µM
O=C(Nc1nc2cc3c(cc2s1)OCCO3)c1ccc(-n2c(O)ccc2O)cc1 | 15.1 µM
COc1cc(-c2nc3n(n2)C(c2cccc(OC)c2OC)C2C(=O)CCCC2=N3)cc(OC)c1OC (configuration not stated) | > 111 µM
COc1ccc(-n2cc(O)c(-c3nc4ccccc4s3)c2N)cc1 | > 111 µM
